US9096492B2, “Hydrated N-fullerene amino acids, method for producing the latter, and pharmaceutical compositions on the basis thereof” (priority 2011, dated 2015)
Several values for one entry are separate records, joined by “and”; a condition that tells them apart may be missing. Equal entries are not always repeated. Where two headings read alike, the source gives them in different places.

Key:
[1] = test system: A/Swine/1976/31 (H1N1) influenza virus; assay type: in vivo, mice; conditions: for Infectious virus titer (log10EID50/20 mg tissue): lung tissue
[2] = test system: ascites Ehrlich carcinoma cells; assay: Apoptosis in ascites Ehrlich carcinoma cells of treated mice (cytofluorimetric analysis); assay type: in vivo
[3] = rat, in vivo
[4] = test system: A/Aichi/2/69 (H3N2) influenza virus; assay: Induced influenza pneumonia in mice
[5] = ascites cells having large sizes and granularity (tumor cells)
[6] = ascites cells of moderate size and granularity
[7] = intramuscularly 50 mg/kg/day, observation day 16

N-fullerene tris(δ-aminocaproic acid) hydrate [Agent 1]
Average lifetime (LD) ([1]; 30 mg/kg, Summary dose, n=30): 10.6 days | Increase in LD ([1]; 30 mg/kg, Summary dose, n=30): 1.9 days | Mortality rate, % ([1]; 30 mg/kg, Summary dose, n=30): 56.7% | Number of survivors ([1]; 30 mg/kg, Summary dose, n=30): 13 | Average lifetime (LD) ([1]; 30 mg/kg, virus 1 LD50, n=15): 12.3 days | Increase in LD ([1]; 30 mg/kg, virus 1 LD50, n=15): 1.7 days | Mortality rate, % ([1]; 30 mg/kg, virus 1 LD50, n=15): 40.0% | Number of survivors ([1]; 30 mg/kg, virus 1 LD50, n=15): 9 | Average lifetime (LD) ([1]; 30 mg/kg, virus 10 LD50, n=15): 8.9 days | Increase in LD ([1]; 30 mg/kg, virus 10 LD50, n=15): 2.4 days | Mortality rate, % ([1]; 30 mg/kg, virus 10 LD50, n=15): 73.3% | Number of survivors ([1]; 30 mg/kg, virus 10 LD50, n=15): 4 | Average lifetime (LD) ([1]; 100 mg/kg, Summary dose, n=28): 11.8 days | Increase in LD ([1]; 100 mg/kg, Summary dose, n=28): 3.1 days | Mortality rate, % ([1]; 100 mg/kg, Summary dose, n=28): 39.3% | Number of survivors ([1]; 100 mg/kg, Summary dose, n=28): 17 | Average lifetime (LD) ([1]; 100 mg/kg, virus 1 LD50, n=15): 13.1 days | Increase in LD ([1]; 100 mg/kg, virus 1 LD50, n=15): 2.5 days | Mortality rate, % ([1]; 100 mg/kg, virus 1 LD50, n=15): 26.7% | Number of survivors ([1]; 100 mg/kg, virus 1 LD50, n=15): 11 | Average lifetime (LD) ([1]; 100 mg/kg, virus 10 LD50, n=13): 10.3 days | Increase in LD ([1]; 100 mg/kg, virus 10 LD50, n=13): 3.7 days | Mortality rate, % ([1]; 100 mg/kg, virus 10 LD50, n=13): 53.8% | Number of survivors ([1]; 100 mg/kg, virus 10 LD50, n=13): 6 | Average lifetime (LD) ([1]; 300 mg/kg, Summary dose, n=28): 12.3 days | Increase in LD ([1]; 300 mg/kg, Summary dose, n=28): 3.7 days | Mortality rate, % ([1]; 300 mg/kg, Summary dose, n=28): 32.1% | Number of survivors ([1]; 300 mg/kg, Summary dose, n=28): 19 | Size of chronic post-influenza pneumonia sites (% of the total surface area of the lungs) ([1]; 300 mg/kg, the lower of the virus doses used, day 15): 25 ± 7% | Average lifetime (LD) ([1]; 300 mg/kg, virus 1 LD50, n=14): 13.6 days | Increase in LD ([1]; 300 mg/kg, virus 1 LD50, n=14): 3.0 days | Mortality rate, % ([1]; 300 mg/kg, virus 1 LD50, n=14): 21.4% | Number of survivors ([1]; 300 mg/kg, virus 1 LD50, n=14): 11 | Average lifetime (LD) ([1]; 300 mg/kg, virus 10 LD50, n=14): 11.0 days | Increase in LD ([1]; 300 mg/kg, virus 10 LD50, n=14): 4.4 days | Mortality rate, % ([1]; 300 mg/kg, virus 10 LD50, n=14): 42.9% | Number of survivors ([1]; 300 mg/kg, virus 10 LD50, n=14): 8 | Infectious virus titer (log10EID50/20 mg tissue) ([1]; 300 mg/kg, virus dose 1 LD50): 3.7 ± 0.3 log10EID50/20 mg tissue | Infectious virus titer (log10EID50/20 mg tissue) ([1]; 300 mg/kg, virus dose 5 LD50): 4.1 ± 0.2 log10EID50/20 mg tissue | AnV^+ 7AAD^+ (late apoptosis) [2, 5]: 69.5 ± 5.8% | AnV^+ 7AAD^− (early apoptosis) [2, 5]: 0.1 ± 0.1% | AnV^−7AAD^− (living cells) [2, 5]: 0.3 ± 0.1% | AnV^−7AAD^+ (necrosis) ([2]; ascites cells having large sizes and granularity (tumor cells), hydrate): 30.2% and 30.2 ± 5.9% | Percent amount of cells with the phenotype AnV^+ 7AAD^+ (late apoptosis) [2, 6]: 4.2 ± 2.4% | Percent amount of cells with the phenotype AnV^+ 7AAD^− early apoptosis [2, 6]: 31.1 ± 10.4% | Percent amount of cells with the phenotype AnV^−7AAD^+ (necrosis) [2, 6]: 0.4 ± 0.4% | Percent amount of cells with the phenotype AnV^−7AAD^− (living cells) [2, 6]: 6.1 ± 6.2% | Weight coefficients of viscera, Spleen [3]: 5.2 ± 0.7 g/kg body weight | Weight coefficients of viscera, heart [3]: 4.1 ± 0.4 g/kg body weight | Weight coefficients of viscera, kidneys [3]: 6.5 ± 0.4 g/kg body weight | Weight coefficients of viscera, liver [3]: 32.2 ± 1.8 g/kg body weight | Weight coefficients of viscera, lungs [3]: 7.1 ± 0.5 g/kg body weight | Weight coefficients of viscera, thymus [3]: 1.2 ± 0.4 g/kg body weight | weight coefficients of organs versus control [3]: no significant difference was found between experimental and control animals | weight coefficients of viscera versus control [3]: no distinctions between the rats of the experimental groups and the control group | Weight coefficients of viscera, Spleen ([3]; 3 mg/kg): 4.7 ± 0.5 g/kg body weight | Weight coefficients of viscera, heart ([3]; 3 mg/kg): 3.5 ± 0.7 g/kg body weight | Weight coefficients of viscera, kidneys ([3]; 3 mg/kg): 7.2 ± 0.5 g/kg body weight | Weight coefficients of viscera, heart ([3]; 9 mg/kg): 3.8 ± 0.6 g/kg body weight | Percent body weight change ([4]; intramuscularly 50 mg/kg/day, day 1 post infection): +9% | Percent body weight change ([4]; intramuscularly 50 mg/kg/day, day 2 post infection): +14% | Percent body weight change ([4]; intramuscularly 50 mg/kg/day, day 3 post infection): +21% | Percent body weight change ([4]; intramuscularly 50 mg/kg/day, day 4 post infection): +26% | Percent body weight change ([4]; intramuscularly 50 mg/kg/day, day 5 post infection): +30% | Percent body weight change ([4]; intramuscularly 50 mg/kg/day, day 7 post infection): +27% | Percent body weight change ([4]; intramuscularly 50 mg/kg/day, day 9 post infection): +38% | Percent body weight change ([4]; intramuscularly 50 mg/kg/day, day 11 post infection): +64% | Percent body weight change ([4]; intramuscularly 50 mg/kg/day, day 13 post infection): +74% | Average lifetime (days) [4, 7]: 12.4 (1-7 d., 1-9 d., 2-11 d) days | Death rate (%) [4, 7]: 40% | Percent death protection (%) [4, 7]: 50% | Survival (survivors/total) [4, 7]: 6/10 | Percent body weight change ([4]; intramuscularly 100 mg/kg/day, day 1 post infection): +13% | Percent body weight change ([4]; intramuscularly 100 mg/kg/day, day 2 post infection): +17% | Percent body weight change ([4]; intramuscularly 100 mg/kg/day, day 3 post infection): +23% | Percent body weight change ([4]; intramuscularly 100 mg/kg/day, day 4 post infection): +28% | Percent body weight change ([4]; intramuscularly 100 mg/kg/day, day 5 post infection): +31% | Percent body weight change ([4]; intramuscularly 100 mg/kg/day, day 7 post infection): +39% | Percent body weight change ([4]; intramuscularly 100 mg/kg/day, day 9 post infection): +65% | Percent body weight change ([4]; intramuscularly 100 mg/kg/day, day 11 post infection): +7% | Percent body weight change ([4]; intramuscularly 100 mg/kg/day, day 13 post infection): +82% | Average lifetime (days) ([4]; intramuscularly 100 mg/kg/day, observation day 16): 13.5 (1-8 d, 1-9 d) days
